Test: Effect of solvent on the stability of the solution (purity at various pH values and temperature)
Type: physicochemical
Details: 7% solution

CCN(CC)CCOC(=O)c1ccccc1OC(C)=O.Cl
Purity(%) at day 0 (solvent 15% ethanol, pH 1.0, day 0): 99.1 ± 0.2%
Purity(%) at day 14 (5° C.) (solvent 15% ethanol, pH 1.0, day 14, 5° C.): 92.1 ± 0.3%
Purity(%) at day 14 (25° C.) (solvent 15% ethanol, pH 1.0, day 14, 25° C.): 62.7 ± 0.3%
Purity(%) at day 14 (40° C.) (solvent 15% ethanol, pH 1.0, day 14, 40° C.): 0%
Purity (%) at day 14 (60° C.) (solvent 15% ethanol, pH 1.0, day 14, 60° C.): 0%
Purity(%) at day 0 (solvent 15% ethanol, pH 2.0, day 0): 99.4 ± 0.2%
Purity(%) at day 14 (5° C.) (solvent 15% ethanol, pH 2.0, day 14, 5° C.): 96.5 ± 0.2%
Purity(%) at day 14 (25° C.) (solvent 15% ethanol, pH 2.0, day 14, 25° C.): 83.8 ± 0.3%
Purity(%) at day 14 (40° C.) (solvent 15% ethanol, pH 2.0, day 14, 40° C.): 0%
Purity (%) at day 14 (60° C.) (solvent 15% ethanol, pH 2.0, day 14, 60° C.): 0%
Purity(%) at day 0 (solvent 15% ethanol, pH 3.0, day 0): 99.5 ± 0.1%
Purity(%) at day 14 (25° C.) (solvent 15% ethanol, pH 3.0, day 14, 25° C.): 88.8 ± 0.2%
Purity(%) at day 14 (40° C.) (solvent 15% ethanol, pH 3.0, day 14, 40° C.): 2.9 ± 0.3%
Purity (%) at day 14 (60° C.) (solvent 15% ethanol, pH 3.0, day 14, 60° C.): 0%
Purity(%) at day 0 (solvent 15% ethanol, pH 3.7, day 0): 99.6 ± 0.1%
Purity(%) at day 14 (25° C.) (solvent 15% ethanol, pH 3.7, day 14, 25° C.): 96.2 ± 0.3%
Purity(%) at day 14 (40° C.) (solvent 15% ethanol, pH 3.7, day 14, 40° C.): 15.2 ± 0.3%
Purity (%) at day 14 (60° C.) (solvent 15% ethanol, pH 3.7, day 14, 60° C.): 0%
Purity(%) at day 0 (solvent 15% ethanol, pH 4.0, day 0): 99.7 ± 0.2%
Purity(%) at day 14 (25° C.) (solvent 15% ethanol, pH 4.0, day 14, 25° C.): 96.7 ± 0.2%
Purity(%) at day 14 (40° C.) (solvent 15% ethanol, pH 4.0, day 14, 40° C.): 15.7 ± 0.3%
Purity (%) at day 14 (60° C.) (solvent 15% ethanol, pH 4.0, day 14, 60° C.): 0%
Purity(%) at day 0 (solvent 15% ethanol, pH 4.3, day 0): 99.7 ± 0.1%
Purity(%) at day 14 (25° C.) (solvent 15% ethanol, pH 4.3, day 14, 25° C.): 96.7 ± 0.1%
Purity(%) at day 14 (40° C.) (solvent 15% ethanol, pH 4.3, day 14, 40° C.): 13.6 ± 0.3%
Purity (%) at day 14 (60° C.) (solvent 15% ethanol, pH 4.3, day 14, 60° C.): 0%
Purity(%) at day 0 (solvent 15% ethanol, pH 4.6, day 0): 99.6 ± 0.2%
Purity(%) at day 14 (25° C.) (solvent 15% ethanol, pH 4.6, day 14, 25° C.): 96.5 ± 0.2%
Purity(%) at day 14 (40° C.) (solvent 15% ethanol, pH 4.6, day 14, 40° C.): 4.1 ± 0.3%
Purity (%) at day 14 (60° C.) (solvent 15% ethanol, pH 4.6, day 14, 60° C.): 0%
Purity(%) at day 0 (solvent 15% ethanol, pH 5.0, day 0): 99.5 ± 0.2%
Purity(%) at day 14 (5° C.) (solvent 15% ethanol, pH 5.0, day 14, 5° C.): 97.4 ± 0.2%
Purity(%) at day 14 (25° C.) (solvent 15% ethanol, pH 5.0, day 14, 25° C.): 92.9 ± 0.2%
Purity(%) at day 14 (40° C.) (solvent 15% ethanol, pH 5.0, day 14, 40° C.): 1.3 ± 0.3%
Purity (%) at day 14 (60° C.) (solvent 15% ethanol, pH 5.0, day 14, 60° C.): 0%
Purity(%) at day 0 (solvent 15% ethanol, pH 6.0, day 0): 99.4 ± 0.2%
Purity(%) at day 14 (5° C.) (solvent 15% ethanol, pH 6.0, day 14, 5° C.): 92.3 ± 0.3%
Purity(%) at day 14 (25° C.) (solvent 15% ethanol, pH 6.0, day 14, 25° C.): 84.9 ± 0.3%
Purity(%) at day 14 (40° C.) (solvent 15% ethanol, pH 6.0, day 14, 40° C.): 0%
Purity (%) at day 14 (60° C.) (solvent 15% ethanol, pH 6.0, day 14, 60° C.): 0%
Purity(%) at day 0 (solvent 15% ethanol, pH 7.0, day 0): 99.2 ± 0.1%
Purity(%) at day 14 (5° C.) (solvent 15% ethanol, pH 7.0, day 14, 5° C.): 87.9 ± 0.3%
Purity(%) at day 14 (25° C.) (solvent 15% ethanol, pH 7.0, day 14, 25° C.): 60.2 ± 0.3%
Purity(%) at day 14 (40° C.) (solvent 15% ethanol, pH 7.0, day 14, 40° C.): 0%
Purity (%) at day 14 (60° C.) (solvent 15% ethanol, pH 7.0, day 14, 60° C.): 0%
Purity(%) at day 0 (solvent 15% ethanol, pH 8.0, day 0): 99.1 ± 0.2%
Purity(%) at day 14 (5° C.) (solvent 15% ethanol, pH 8.0, day 14, 5° C.): 58.7 ± 0.4%
Purity(%) at day 14 (25° C.) (solvent 15% ethanol, pH 8.0, day 14, 25° C.): 22.7 ± 0.3%
Purity(%) at day 14 (40° C.) (solvent 15% ethanol, pH 8.0, day 14, 40° C.): 0%
Purity (%) at day 14 (60° C.) (solvent 15% ethanol, pH 8.0, day 14, 60° C.): 0%
Purity(%) at day 0 (solvent 25% ethanol, pH 1.0, day 0): 99.1 ± 0.3%
Purity(%) at day 14 (5° C.) (solvent 25% ethanol, pH 1.0, day 14, 5° C.): 92.3 ± 0.3%
Purity(%) at day 14 (25° C.) (solvent 25% ethanol, pH 1.0, day 14, 25° C.): 63.5 ± 0.3%
Purity(%) at day 14 (40° C.) (solvent 25% ethanol, pH 1.0, day 14, 40° C.): 0%
Purity (%) at day 14 (60° C.) (solvent 25% ethanol, pH 1.0, day 14, 60° C.): 0%
Purity(%) at day 0 (solvent 25% ethanol, pH 2.0, day 0): 99.4 ± 0.3%
Purity(%) at day 14 (5° C.) (solvent 25% ethanol, pH 2.0, day 14, 5° C.): 96.9 ± 0.3%
Purity(%) at day 14 (25° C.) (solvent 25% ethanol, pH 2.0, day 14, 25° C.): 84.2 ± 0.3%
Purity(%) at day 14 (40° C.) (solvent 25% ethanol, pH 2.0, day 14, 40° C.): 0%
Purity (%) at day 14 (60° C.) (solvent 25% ethanol, pH 2.0, day 14, 60° C.): 0%
Purity(%) at day 0 (solvent 25% ethanol, pH 3.0, day 0): 99.5 ± 0.2%
Purity(%) at day 14 (25° C.) (solvent 25% ethanol, pH 3.0, day 14, 25° C.): 88.9 ± 0.2%
Purity(%) at day 14 (40° C.) (solvent 25% ethanol, pH 3.0, day 14, 40° C.): 2.9 ± 0.2%
Purity (%) at day 14 (60° C.) (solvent 25% ethanol, pH 3.0, day 14, 60° C.): 0%
Purity(%) at day 0 (solvent 25% ethanol, pH 3.7, day 0): 99.6 ± 0.1%
Purity(%) at day 14 (5° C.) (solvent 25% ethanol, pH 3.7, day 14, 5° C.): 99.1 ± 0.2%
Purity(%) at day 14 (25° C.) (solvent 25% ethanol, pH 3.7, day 14, 25° C.): 96.3 ± 0.2%
Purity(%) at day 14 (40° C.) (solvent 25% ethanol, pH 3.7, day 14, 40° C.): 15.1 ± 0.3%
Purity (%) at day 14 (60° C.) (solvent 25% ethanol, pH 3.7, day 14, 60° C.): 0%
Purity(%) at day 0 (solvent 25% ethanol, pH 4.0, day 0): 99.8 ± 0.1%
Purity(%) at day 14 (5° C.) (solvent 25% ethanol, pH 4.0, day 14, 5° C.): 99.1 ± 0.1%
Purity(%) at day 14 (25° C.) (solvent 25% ethanol, pH 4.0, day 14, 25° C.): 96.9 ± 0.1%
Purity(%) at day 14 (40° C.) (solvent 25% ethanol, pH 4.0, day 14, 40° C.): 15.2 ± 0.3%
Purity (%) at day 14 (60° C.) (solvent 25% ethanol, pH 4.0, day 14, 60° C.): 0%
Purity(%) at day 0 (solvent 25% ethanol, pH 4.3, day 0): 99.7 ± 0.2%
Purity(%) at day 14 (5° C.) (solvent 25% ethanol, pH 4.3, day 14, 5° C.): 99.1 ± 0.2%
Purity(%) at day 14 (25° C.) (solvent 25% ethanol, pH 4.3, day 14, 25° C.): 96.8 ± 0.2%
Purity(%) at day 14 (40° C.) (solvent 25% ethanol, pH 4.3, day 14, 40° C.): 13.8 ± 0.3%
Purity (%) at day 14 (60° C.) (solvent 25% ethanol, pH 4.3, day 14, 60° C.): 0%
Purity(%) at day 0 (solvent 25% ethanol, pH 4.6, day 0): 99.7 ± 0.2%
Purity(%) at day 14 (25° C.) (solvent 25% ethanol, pH 4.6, day 14, 25° C.): 96.5 ± 0.2%
Purity(%) at day 14 (40° C.) (solvent 25% ethanol, pH 4.6, day 14, 40° C.): 4.2 ± 0.1%
Purity (%) at day 14 (60° C.) (solvent 25% ethanol, pH 4.6, day 14, 60° C.): 0%
Purity(%) at day 0 (solvent 25% ethanol, pH 5.0, day 0): 99.6 ± 0.2%
Purity(%) at day 14 (25° C.) (solvent 25% ethanol, pH 5.0, day 14, 25° C.): 92.8 ± 0.2%
Purity(%) at day 14 (40° C.) (solvent 25% ethanol, pH 5.0, day 14, 40° C.): 1.6 ± 0.1%
Purity (%) at day 14 (60° C.) (solvent 25% ethanol, pH 5.0, day 14, 60° C.): 0%
Purity(%) at day 0 (solvent 25% ethanol, pH 6.0, day 0): 99.5 ± 0.3%
Purity(%) at day 14 (5° C.) (solvent 25% ethanol, pH 6.0, day 14, 5° C.): 92.7 ± 0.2%
Purity(%) at day 14 (25° C.) (solvent 25% ethanol, pH 6.0, day 14, 25° C.): 85.0 ± 0.3%
Purity(%) at day 14 (40° C.) (solvent 25% ethanol, pH 6.0, day 14, 40° C.): 0%
Purity (%) at day 14 (60° C.) (solvent 25% ethanol, pH 6.0, day 14, 60° C.): 0%
Purity(%) at day 0 (solvent 25% ethanol, pH 7.0, day 0): 99.4 ± 0.3%
Purity(%) at day 14 (5° C.) (solvent 25% ethanol, pH 7.0, day 14, 5° C.): 88.0 ± 0.3%
Purity(%) at day 14 (25° C.) (solvent 25% ethanol, pH 7.0, day 14, 25° C.): 61.2 ± 0.3%
Purity(%) at day 14 (40° C.) (solvent 25% ethanol, pH 7.0, day 14, 40° C.): 0%
Purity (%) at day 14 (60° C.) (solvent 25% ethanol, pH 7.0, day 14, 60° C.): 0%
Purity(%) at day 0 (solvent 25% ethanol, pH 8.0, day 0): 99.1 ± 0.3%
Purity(%) at day 14 (5° C.) (solvent 25% ethanol, pH 8.0, day 14, 5° C.): 59.8 ± 0.3%
Purity(%) at day 14 (25° C.) (solvent 25% ethanol, pH 8.0, day 14, 25° C.): 23.1 ± 0.3%
Purity(%) at day 14 (40° C.) (solvent 25% ethanol, pH 8.0, day 14, 40° C.): 0%

— patent publication US20230157952A1, “METHOD FOR IMPROVING THE STABILITY OF A PHARMACEUTICAL COMPOSITION COMPRISING A HIGH PENETRATION DRUG, AND THE PHARMACEUTICAL COMPOSITION OBTAINED THEREFROM” (Techfields Inc., priority 2020, published 2023)
